Like-named read-outs stand apart in the source and are kept apart here.
Legend:
CYP2D6 = CYP2D6 (Homo sapiens, UniProt P10635); assay: drug interaction study of vibegron and metoprolol succinate (moderately sensitive CYP2D6 substrate); type: in vivo; set-up: from tissue; host or cells: in vivo, healthy adult human subjects (endogenous enzyme)
[1] = QT Study/Label April 2018, cited from earlier work
[2] = human, plasma, metoprolol 100 mg alone
[3] = metoprolol 100 mg, vibegron 75 mg
[4] = 50 mg repeat-dose, healthy subjects

Chain of CYP2D6 (P10635 whole entry): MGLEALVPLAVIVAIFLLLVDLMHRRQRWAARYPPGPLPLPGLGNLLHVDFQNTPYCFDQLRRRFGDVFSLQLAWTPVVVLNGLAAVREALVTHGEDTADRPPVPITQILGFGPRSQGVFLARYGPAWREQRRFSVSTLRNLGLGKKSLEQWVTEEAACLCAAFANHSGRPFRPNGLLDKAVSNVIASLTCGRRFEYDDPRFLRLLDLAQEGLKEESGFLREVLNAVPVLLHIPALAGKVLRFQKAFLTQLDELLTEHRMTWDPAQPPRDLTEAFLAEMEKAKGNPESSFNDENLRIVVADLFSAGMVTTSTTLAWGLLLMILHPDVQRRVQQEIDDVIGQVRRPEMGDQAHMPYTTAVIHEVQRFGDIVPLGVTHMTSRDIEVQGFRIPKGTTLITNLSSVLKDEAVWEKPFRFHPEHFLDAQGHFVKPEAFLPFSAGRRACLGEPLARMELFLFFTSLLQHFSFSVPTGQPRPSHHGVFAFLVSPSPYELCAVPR

AUC(0-inf) (CYP2D6; [2]) [ng·h/mL] | Cmax (CYP2D6; [2]) [ng/mL] | half-life (CYP2D6; human, plasma, metoprolol 100 mg alone, read-out: t1/2, GM (% CV) (converted)) [h] | AUC0-∞, ratio of GLS mean metoprolol + vibegron/metoprolol alone (CYP2D6; [3]) | Cmax, ratio of GLS mean metoprolol + vibegron/metoprolol alone (CYP2D6; [3]) | Structure (SMILES) | SBP change 24-hour average, placebo adjusted [1, 4] | SBP change Maximum mean, placebo adjusted [1, 4] | SBP change 24-hour average, placebo adjusted ([1]; 100 mg repeat-dose, healthy subjects) | SBP change 24-hour average, placebo adjusted ([1]; 200 mg repeat-dose, healthy subjects) | HR change Maximum mean, placebo adjusted ([1]; first of doses 50, 100, 200 mg repeat-dose (doses from the Doses line)) [bpm] | HR change Maximum mean, placebo adjusted ([1]; second of doses 50, 100, 200 mg repeat-dose (doses from the Doses line)) [bpm] | HR change Maximum mean, placebo adjusted ([1]; third of doses 50, 100, 200 mg repeat-dose (doses from the Doses line)) [bpm]
384 | 21.9 | 9.5 | 1.40 | 1.49 | COCCc1ccc(OCC(O)CNC(C)C)cc1 (stereo not drawn) [Metoprolol, metoprolol succinate] | – | – | – | – | – | – | –
– | – | – | – | – | Nc1nc(CC(=O)Nc2ccc(CCNC[C@H](O)c3ccccc3)cc2)cs1 [Mirabegron, mirabegron] | +3.0 mmHg | Maximum mean +4.0 mmHg | +5.5 mmHg | +9.7 mmHg | 6.7 | 11 | 17

Source: patent US20230027066A1 (Urovant Sciences GmbH, priority 2019, published 2023)
